US8889680B2, “Treatment or prevention of fungal infections with PDK1 inhibitors” (priority 2010, dated 2014)

Legend:
normal cells = conditions: cited from earlier work
Candida spp. = assay: Antifungal susceptibility (microdilution MIC), Candida spp.; format: cell-based
Procedure: (§1) The antifungal activity of protein kinase inhibitors was determined using the Clinical and Laboratory Science Institute microdilution protocol M-27A2. Biofilm antifungal activity was determined using the protocol of Pierce et al. and is reported as MIC50S (Pierce et al., Nat. Protoc. 3:1494-1500 (2008)). Disk diffusion assays were performed as described previously (Roelants et al., Microbiology 150:3289-304 (2004)).
(FIG. 3A). […] Since the echinocandin class of cell wall-targeted 1,3-β-glucan synthase inhibitors is not active against C. neoformans, this represents one of the few cell wall-targeted molecules with activity against this important pathogen.

C. albicans [1] = assay: Antifungal susceptibility (microdilution MIC), C. albicans; format: cell-based, Candida albicans
Procedure: as §1
To identify PKIs that disrupt yeast cell wall integrity, a four-part screening strategy as outlined in FIG. 1A was designed. The primary screen in the approach detects molecules that cause yeast cells to lyse, a characteristic phenotype of yeast cell wall damage, by use of an assay that detects the release of adenylate kinase (AK) to the growth medium as a reporter of yeast cell lysis. Previously it was shown that the AK assay in HTS format can detect as few as 500 lysed yeast cells in a sample of 10^5 cells (Didone et al., Nat. Protocol. 5:1107-14 (2010)). PKIs that cause yeast cells lysis (hits) were then re-confirmed by AK dose-response assays and tested for in vitro antifungal activity against the human fungal pathogen C. albicans using standard microdilution susceptibility testing. Last, to select PKIs specific for the CWI signaling pathway, the set of hits were tested for their ability to block the activation of a transcriptional reporter of the CWI-signaling pathway. […]

[2] = system: Pkh1/2-dependent phosphorylation of Pil1-GFP; assay: Pil1-GFP phosphorylation immunoblot; format: cell-based, S. cerevisiae; conditions: sub-inhibitory KP-372-1 (1/2 MIC); cells with endogenous Pkh1/2 and cells over-expressing Pkh2; Western blot
Procedure: Cells were harvested at the indicated times and analyzed by Pil1-GFP immunoblotting. Pil1-P corresponds to the Pkh1/2-dependent phosphorylated Pil1 species.
Western blot analysis of Pil1-GFP was performed essentially as described (Luo et al., J. Biol. Chem. 283:10433-44 (2008)). Briefly, Pil1-GFP containing cells were harvested and lysed using the SDS-PAGE sample buffer method. Extracts corresponding to equivalent numbers of cells were fractionated by SDS-PAGE electrophoresis on 7% gels, transferred to nitrocellulose and blocked overnight in 50 mM Tris pH 7.5/150 mM NaCl/0.05% (v/v) Tween-20+5% (w/v) non-fat skim milk. Pil1-GFP was detected using mouse anti-GFP (1:10,000 dilution, Clontech Living Colors) (Clontech; Mountain View, Calif.) as primary and goat anti-mouse antibodies conjugated with horse-radish peroxidase (1:10,000) followed by visualization with ECL-Plus reagents (Amersham; Piscataway, N.J.).
S. cerevisiae strains containing a chromosomally-integrated PIL1-GFP allele were transformed with a vector control or a plasmid expressing PKH2 under the control of a galactose-inducible promoter. […] The phosphorylation status of Pil1-GFP was followed over a 3.5 hour time course by Western blot.

C. albicans [3] = assay: Checkerboard interaction assay (FIC); format: cell-based, Candida albicans
Procedure: This assay allows one to compare the activity of a molecule alone and in combination with another molecule by generating a fractional inhibitory concentration (FIC). FIC for two drugs (A & B) is calculated as follows: […]. FIC values less than 0.5 are considered synergistic; between 0.5 and 1 are additive; between 1-2 are indifferent; and above 2 are antagonistic. […] Therefore, KP-372-1 is not synergistic with either agent.

O=C1c2ccccc2-c2nc3nnnn3nc21.O=C1c2ccccc2-c2nn3nnnc3nc21 [KP-372-1]
cytotoxicity toward normal cells (normal cells): without significant cytotoxicity
MIC (Candida spp.; Candida spp., FIG. 7 legend): 3 to 25 µg/mL
antifungal activity (in words) (Candida spp.; other Candida spp. compared with C. albicans and C. glabrata): less so
antifungal activity (in words) (C. albicans [1]; C. albicans): highly active
MIC (C. albicans [1]; C. albicans growth assay, Table 1): 3 µg/mL
phosphorylation of Pil1-GFP [2]: rapidly blocked
FIC (fractional inhibitory concentration) (C. albicans [3]; combination with caspofungin): 0.5
FIC (fractional inhibitory concentration) (C. albicans [3]; combination with fluconazole): 1.0
